This note sets out measurements from ChEMBL document CHEMBL3244056, “Synthesis and some pharmacological properties of [4-threonine, 7-glycine]oxytocin, [1-(L-2-hydroxy-3-mercaptopropanoic acid), 4-threonine, 7-glycine]oxytocin (hydroxy[Thr4, Gly7]oxytocin), and [7-Glycine]oxytocin, peptides with high oxytocic-antidiuretic selectivity” (J Med Chem, 1977).

The structures appear in SMILES notation. Starred links: 1 amine or outer side, 2 acyl side, 3 side chain; linkers in the order of their positions; H or OH if unused. Positions of bridges follow the written chain, without caps; N, C: chain ends. Residues, ends and D or L forms follow the SMILES beside them. X1 = O=C([C@H](O)CS[*:2])[*:1]

Data set [1] in a line: Retardation factor, Rf value of the compound in butan-1-ol-acetic acid-water (4:1:5 v/v, upper phase) solvent system. In kind it is physicochemical. The conditions noted are these: buffer.
A short description of data set [2]: Retardation factor, Rf value of the compound in butan-1-ol-acetic acid-water-pyridine (15:3:3:10v/v) solvent system. In kind it is physicochemical. The conditions noted are these: buffer.
For data set [3], the species on record is Rattus norvegicus. As to the kind of experiment: Ratio of oxytocic potency to antidiuretic activity in rat. Set-up: species or system Urine.
Data set [4] has as its system Rattus norvegicus. Nature of the data set: Antidiuretic activity in iv dosed rat. The class given is ADME, organism-based, Urine. The settings on record: in vivo.
Data set [5] can be described thus: Retardation factor, Rf value of the compound in butan-1-ol-acetic acid-water-ethyl acetate (1:1:1:1 v/v) solvent system. The settings on record: buffer. The class given is physicochemical.
The nature of data set [6]: Oxytocic potency in rat by uterus assay in presence of 0.5 mM Mg2+. In kind it is functional.
Data set [7] can be described thus: Retardation factor, Rf value of the compound in butan-1-ol-water (3.5% in acetic acid, 1.5% in pyridine) (1:1 v/v,upper phase) solvent system. In kind it is physicochemical. The conditions noted are these: buffer.
For data set [8], the species on record is Rattus norvegicus. As to the kind of experiment: Vasopressor activity in rat. The class given is ADME, organism-based. The conditions noted are these: in vivo.
Data set [9] can be described thus: Oxytocic potency in rat by uterus assay. In kind it is functional.
The species entered for data set [10] is Rattus norvegicus. Nature of the data set: Oxytocic potency in rat assessed as milk ejection. The class given is functional.
Data set [11] is described as follows: Oxytocic potency in rat by mammary strip assay. The class given is functional.
A further data set is filed under the species Oryctolagus cuniculus. As to the kind of experiment: Oxytocic potency in rabbit assessed as milk ejection. In kind it is functional.

Turning to `CC[C@H](C)[C@@H]1NC(=O)[C@H](Cc2ccc(O)cc2)NC(=O)[C@@H](N)CSSC[C@@H](C(=O)NCC(=O)N[C@@H](CC(C)C)C(=O)NCC(N)=O)NC(=O)[C@H](CC(N)=O)NC(=O)[C@H](CCC(N)=O)NC1=O` (H-CYIQNCGLG-NH2; disulfide 1-6), the Rf in data set [1] stood at 0.3; in data set [2], 0.75; in [5] it was 0.74; in data set [7] it was 0.17. In addition, the Ratio in the data set filed under Rattus norvegicus [3] is recorded as 16600. Besides, the Activity with Rattus norvegicus [4] is on record as 0.0056 U/mg; in data set [6] it was 965 U/mg; in the data set filed under Rattus norvegicus [8] it was less than 0.01 U/mg; in data set [9], 65 U/mg; in the data set listed under Rattus norvegicus [10], 392 U/mg; in data set [11], 478 U/mg.
`CC[C@H](C)[C@@H]1NC(=O)[C@H](Cc2ccc(O)cc2)NC(=O)[C@@H](N)CSSC[C@@H](C(=O)N2CCC[C@H]2C(=O)N[C@@H](CC(C)C)C(=O)NCC(N)=O)NC(=O)[C@H](CC(N)=O)NC(=O)[C@H](CCC(N)=O)NC1=O` [OXYTOCIN]: the Activity stood at 4 U/mg with Rattus norvegicus [4]; 486 U/mg in data set [6]; 543 U/mg in the data set listed under Oryctolagus cuniculus; 520 U/mg in data set [9]; 533 U/mg in data set [11].
`CC[C@H](C)[C@@H]1NC(=O)[C@H](Cc2ccc(O)cc2)NC(=O)[C@H](O)CSSC[C@@H](C(=O)NCC(=O)N[C@@H](CC(C)C)C(=O)NCC(N)=O)NC(=O)[C@H](CC(N)=O)NC(=O)[C@H]([C@@H](C)O)NC1=O` (YITNCGLG-NH2; linker N-5 via X1): the Rf in [1] came to 0.56; in data set [2], 0.88; in data set [5], 0.89; in data set [7], 0.52. The Ratio in the data set filed under Rattus norvegicus [3] is given as 54500. The Activity is 0.004 U/mg with Rattus norvegicus [4]; 1002 U/mg in data set [6]; less than 0.01 U/mg in the data set listed under Rattus norvegicus [8]; 218 U/mg in [9]; 950 U/mg in the data set filed under Rattus norvegicus [10]; 623 U/mg in data set [11].
For the compound `CC[C@H](C)[C@@H]1NC(=O)[C@H](Cc2ccc(O)cc2)NC(=O)[C@@H](N)CSSC[C@@H](C(=O)N2CCC[C@H]2C(=O)N[C@@H](CC(C)C)C(=O)NCC(N)=O)NC(=O)[C@H](CC(N)=O)NC(=O)[C@H]([C@@H](C)O)NC1=O` (H-CYITNCPLG-NH2; disulfide 1-6), the Ratio in the data set listed under Rattus norvegicus [3] is recorded as 510. Moreover, the Activity with Rattus norvegicus [4] stood at 1.8 U/mg; in [6], 719 U/mg; in the data set filed under Rattus norvegicus [8], 0.43 U/mg; in data set [9], 923 U/mg; in the data set listed under Rattus norvegicus [10], 543 U/mg.
Turning to `CC[C@H](C)[C@@H]1NC(=O)[C@H](Cc2ccc(O)cc2)NC(=O)[C@@H](N)CSSC[C@@H](C(=O)NCC(=O)N[C@@H](CC(C)C)C(=O)NCC(N)=O)NC(=O)[C@H](CC(N)=O)NC(=O)[C@H]([C@@H](C)O)NC1=O` (H-CYITNCGLG-NH2; disulfide 1-6), the Rf in [1] is 0.37; in [2], 0.83; in data set [5], 0.85; in data set [7], 0.27. In the data set filed under Rattus norvegicus [3], the Ratio was 83000. For the same compound, the Activity in the data set on Rattus norvegicus [4] is given as 0.002 U/mg; in data set [6], 857 U/mg; in the data set filed under Rattus norvegicus [8] it was less than 0.01 U/mg; in [9], 166 U/mg; in the data set filed under Rattus norvegicus [10] it was 802 U/mg; in data set [11] it was 490 U/mg.
Take `CC[C@H](C)[C@@H]1NC(=O)[C@H](Cc2ccc(O)cc2)NC(=O)[C@H](O)CSSC[C@@H](C(=O)N2CCC[C@H]2C(=O)N[C@@H](CC(C)C)C(=O)NCC(N)=O)NC(=O)[C@H](CC(N)=O)NC(=O)[C@H]([C@@H](C)O)NC1=O` (YITNCPLG-NH2; linker N-5 via X1): the Ratio in the data set filed under Rattus norvegicus [3] turned out to be 790. Besides, the Activity in the data set on Rattus norvegicus [4] is recorded as 5.3 U/mg; in [6], 937 U/mg; in the data set filed under Rattus norvegicus [8] it was 4.92 U/mg; in data set [9], 4179 U/mg; in the data set filed under Rattus norvegicus [10], 808 U/mg; in [11], 378 U/mg.
